The nature of series [1]: Toxicity (Table 1 summary of characteristics).
In series [2] the test system is p16 gene expression in T24 cells. Kind of series: RT-PCR analysis of p16 expression in T24 cells. The series is classed as cell-based, human. The method, then: The T24 cell line was obtained from the American Type Culture Collection (Rockville, Md.) and cultured in DMEM supplemented with 10% heat-inactivated fetal calf serum and 100 U/ml penicillin-streptomycin. Cultures were grown in a humidified incubator at 37° C. in an atmosphere of 5% CO2 in air.
Cells were plated (3×10^5 cells/100-mm dish) and treated 24 hours later with the indicated concentrations of compounds. The medium was either changed 24 hours or 48 hours after drug treatment.
DNA and RNA were isolated three days after treatment using the NucleoBond RNA/DNA Midi Kit (Clontech Laboratories, Inc., Palo Alto, Calif.).
Total RNA (˜10 μg) was reverse-transcribed using the following reagents: 100 units RNAsin (Promega Corp., Madison, Wis.), 0.1 M DTT (Life Technologies, Inc.), 1000 units of MMLV-RT (Life Technologies, Inc.), 1 mM deoxynucleotide triphosphates (Boehringer Mannheim, Germany), 75 μg/ml BSA, 1× MMLV-RT buffer (Life Technologies, Inc.), and 0.025 ODU Random Hexamers (Amersham-Pharmacia Biotech, Piscataway, N.J.). The reaction mixture was incubated for 10 minutes at 25° C., 45 minutes at 42° C., 3 minutes at 90° C., and chilled for 5 minutes at 4° C., during which time 1.25 μl of MMLV-RT (200 U/μl) were added and the sample then incubated for 45 minutes at 42° C., 10 minutes at 75° C., and stored at −20° C.
cDNA was amplified with primers specific for either p16 or GAPDH. Briefly, PCR reactions were performed in 25-μl volumes at 94° C. for 3 minutes, 28 cycles at 94° C. for 1 minute, 56° C. for 30 seconds, 72° C. for 40 seconds, and a final extension step at 72° C. for 5 min (p16 amplification), and 94° C. for 1 minute, 19 cycles at 94° C. for 1 minute, 58° C. for 30 seconds, 72° C. for 45 seconds, and a final extension step at 72° C. for 2 minutes (GAPDH amplification).
PCR amplifications were performed with cDNA template concentration equivalent to 100 ng of RNA in 10% DMSO. All reactions were analyzed in the linear range of amplification. PCR products were resolved on 2% agarose gels and subsequently transferred to a nylon membrane (Zetaprobe; Bio-Rad, Richmond, Calif.) under alkaline conditions. All blots were hybridized with a γ-^32P-labeled internal oligonucleotide probe, using protocols previously described (Xiong and Laird, Nuc. Acids Res. 25:2532-2534, 1997).
Since 5-Aza-CdR has been shown previously to induce p16 expression in a dose-dependent manner (Bender et al., Cancer Res. 58:95-101, 1998), the two ribonucleoside analogs 5-Aza-CR and Zeb were examined to determine their abilities to induce p16 expression (FIG. 8). Because Zeb is stable in aqueous solution, the effect of prolonging Zeb treatment on p16 expression was tested by treating these cells with different concentrations of Zeb for either 24 hours or 48 hours. RT-PCR was then performed to determine whether p16 gene was induced by drug treatment.

A further series has as its target T1, DNMT1 (Homo sapiens, UniProt P26358).
T1 construct: protein extracts were isolated from both treated and untreated T24; endogenous in cells; host or cells: T24 human bladder carcinoma cells (ATCC)
Kind of series: Western blot of DNMT1 level in treated T24 cells. It is filed as cell-based. The settings on record: 500 μM for 48 h. As for the experimental part:
The mRNA for DNMT3b3 is the only 3b transcript expressed in T24 cells, and DNMT3a levels could not be assessed because no suitable antibodies against DNMT3a are available. Thus, with reference to FIG. 12, protein extracts were isolated from both treated and untreated T24 (population 3 million cells, treated with 500 μM Zebularine for 48 h), and […] with specific antibodies for DNMT1 and DNMT3b3 as shown in FIG. 12. β-actin was included as a loading control, and the molecular weights of each protein are indicated.
(In western blotting, separated proteins are transferred to a membrane and probed.)

Series [3] has as its system p16 promoter and p16 exon 2. Kind of series: Continuous long-term treatment of T24 cells, methylation of p16 promoter and p16 exon 2. The series is classed as cell-based, human. The settings on record: 100 μM continuous treatment, Day 14, T24 cells; dropped from ˜96%.
Another series relates to EJ6 tumors. Kind of series: EJ6 tumors in BALB/c nu/nu mice, tumor volume and histology. It is filed as in vivo. The method, then:
EJ6 cells (5×10^5/injection) were inoculated subcutaneously into the right and left flanks of male BALB/c nu/nu mice at 4-6 weeks of age (available from Harlan, San Diego, Calif.). Zebularine treatments were initiated after macroscopic (50-200 mm 3) tumor formation (4-6 weeks later). Zebularine (500 mg/kg or 1000 mg/kg) was administered daily via intraperitoneal injection or oral gauage feeding over a period of 18 days. Control mice received 0.45% saline administered via intraperitoneal injection or oral gavage feeding over a period of 18 days. Mice (n=30) were divided into five groups (control group, 500 mg/kg intraperitoneal injection, 500 mg/kg oral, 1000 mg/kg intraperitoneal injection, and 1000 mg/kg oral). Each treatment group consisted of a minimum of five animals (at least 6 tumors per group).
Tumor volumes (TV) were measured with calipers and calculated using the following formula: tumor volume=LD^2/2 (where L is the longest diameter and D is the shortest diameter). The relative tumor volume (RTV) was calculated as: RTV=TVn/TVo, where TVn is the calculated volume at day n. Animals were sacrificed 24 hours after the last treatment. Tumors were removed, immediately fixed with neutral buffered formalin and then embedded in OCT compound for frozen sections. The frozen sections were processed and stained with hematoxylin and eosin (H&E). All histological examinations were carried out by light microscopy using a Leica DM LB microscope (Leica Microsystems, Germany).

A further series relates to T24 cells. Kind of series: Zebularine metabolites in T24 cells (SAX-10 HPLC). The series is classed as in vitro ADME, human. The conditions noted are these: 6 hr incubation. The method, then: ZB, ZB-MP, ZB-DP and ZB-TP correspond, respectively, to Zebularine, 5′-mono, 5′-di- and 5′-triphosphate metabolites. There are two unidentified metabolites, indicated by the symbols ?1 and ?2.
Zebularine metabolites were identified after incubation of human bladder cancer cells (T24) in DMEM+10% FCS medium with antibiotics. Zebularine (10 μM, 1 μCi), specific activity 200 DPM/pmole was used in these experiments. At the end of the incubation, cells were extracted with 60% methanol and aliquots were analyzed by SAX-10 HPLC using a methanolwater gradient as follows: 1-5 min 1% MeOH, 5-25 min gradient to 25% MeOH, 25-35 min isocratic with 25% MeOH and back to 1% MeOH after 10 min. The phosphorylated metabolites were identified by comparison with authentic synthetic standards. Using this methodology formation of metabolites as a function of concentration after a 6 hr incubation period was investigated (FIG. 17). The major metabolite formed was the 5′-triphosphate.

T1 sequence (P26358 whole entry): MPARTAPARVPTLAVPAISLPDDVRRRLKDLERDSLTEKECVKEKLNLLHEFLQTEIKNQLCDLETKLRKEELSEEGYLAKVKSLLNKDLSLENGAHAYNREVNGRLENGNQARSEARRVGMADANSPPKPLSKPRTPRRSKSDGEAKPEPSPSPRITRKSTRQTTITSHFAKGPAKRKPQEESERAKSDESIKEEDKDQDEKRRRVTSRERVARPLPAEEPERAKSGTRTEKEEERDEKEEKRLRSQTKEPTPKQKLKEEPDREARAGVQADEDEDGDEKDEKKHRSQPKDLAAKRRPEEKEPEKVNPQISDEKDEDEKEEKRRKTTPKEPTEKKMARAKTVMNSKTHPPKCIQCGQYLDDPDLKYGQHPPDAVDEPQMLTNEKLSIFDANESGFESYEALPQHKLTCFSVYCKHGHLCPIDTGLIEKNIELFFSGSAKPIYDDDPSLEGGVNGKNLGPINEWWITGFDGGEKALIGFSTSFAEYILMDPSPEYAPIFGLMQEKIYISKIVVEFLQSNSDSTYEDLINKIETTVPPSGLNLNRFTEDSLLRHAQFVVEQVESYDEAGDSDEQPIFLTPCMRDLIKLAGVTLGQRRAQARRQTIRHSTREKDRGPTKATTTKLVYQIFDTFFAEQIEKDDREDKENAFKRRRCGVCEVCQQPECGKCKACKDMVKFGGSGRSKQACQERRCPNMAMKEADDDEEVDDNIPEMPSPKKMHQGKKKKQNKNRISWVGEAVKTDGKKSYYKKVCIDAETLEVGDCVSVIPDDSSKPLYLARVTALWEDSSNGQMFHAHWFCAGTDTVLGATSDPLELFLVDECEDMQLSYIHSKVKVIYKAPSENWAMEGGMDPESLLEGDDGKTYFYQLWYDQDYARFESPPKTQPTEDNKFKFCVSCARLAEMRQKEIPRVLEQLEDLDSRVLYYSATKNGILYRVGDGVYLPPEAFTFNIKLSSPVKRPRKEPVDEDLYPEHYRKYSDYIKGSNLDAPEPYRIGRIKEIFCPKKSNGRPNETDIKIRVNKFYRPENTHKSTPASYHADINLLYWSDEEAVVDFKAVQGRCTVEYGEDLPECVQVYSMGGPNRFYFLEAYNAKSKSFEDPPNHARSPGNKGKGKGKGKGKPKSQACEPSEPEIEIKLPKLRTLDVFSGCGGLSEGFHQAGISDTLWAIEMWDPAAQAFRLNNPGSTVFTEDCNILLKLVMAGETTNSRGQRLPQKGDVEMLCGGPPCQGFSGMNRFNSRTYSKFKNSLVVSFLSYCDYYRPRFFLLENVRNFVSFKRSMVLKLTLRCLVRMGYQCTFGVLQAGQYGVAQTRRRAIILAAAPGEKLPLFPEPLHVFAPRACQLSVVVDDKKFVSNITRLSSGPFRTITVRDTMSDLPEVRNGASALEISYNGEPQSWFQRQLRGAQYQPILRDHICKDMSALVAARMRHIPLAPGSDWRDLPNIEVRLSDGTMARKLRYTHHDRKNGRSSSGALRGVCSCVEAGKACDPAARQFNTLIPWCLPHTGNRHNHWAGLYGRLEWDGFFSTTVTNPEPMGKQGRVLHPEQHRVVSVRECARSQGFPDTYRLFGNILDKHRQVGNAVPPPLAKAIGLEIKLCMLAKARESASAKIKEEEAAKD

As for `Nc1ncn([C@@H]2O[C@H](CO)[C@@H](O)[C@H]2O)c(=O)n1` [5-Aza-CR, 5-azacytidine, reference compound], the Toxicity result in series [1] is listed as “High”. The “p16 expression (RT-PCR)” value in series [2] (3 μM) was “no expression”; in series [2] (100 μM), “significant expression”. For the same molecule, in series [2] (100 μM 5-Aza-CR vs 3 μM 5-Aza-CdR), the “highest p16 expression level relative to that with 3 μM 5-Aza-CdR” value is listed as “one-fifth”.
With `O=c1ncccn1[C@@H]1O[C@H](CO)[C@@H](O)[C@H]1O` [Zebularine, 1-β-ribofuranosyl-1,2-dihydropyrimidin-2-one], the “level of DNMT1” value on DNMT1 was “significant reduction”. In addition, the “p16 expression (RT-PCR)” value in series [2] (300 μM for 24 hours) is “insufficient to induce p16 expression”; in series [2] (300 μM for 48 hours), “p16 expression was induced”; in series [2] (500 μM for 24 hours) it was “p16 expression was induced”. For the same molecule, in series [3], the “methylation level at maximum demethylation” value is around 47%. The tumor regression entry in the series on EJ6 tumors (1000 mg/kg orally or intraperitoneally, daily, 18 days) is reported as “tumor regression was observed”. Further, the “tumor growth (relative tumor volume) vs control group” value in the series on EJ6 tumors (all treated groups: 500 or 1000 mg/kg daily, intraperitoneal or oral, 18 days) is recorded as “tumor growth appeared suppressed”. Moreover, the “ratio of tumor cells to stroma (H&E stained tumor sections), treated versus untreated” value in the series on EJ6 tumors (tumors removed 24 hours after the last treatment) is “lower ratio of tumor cells to stroma”. In addition, the major metabolite formed in the series with T24 cells is given as 5′-triphosphate.

Values taken from US8207142B2, “Inhibitor of DNA methylation” (priority 2001, dated 2012).
